The supplement of paper PMC10307832

Legend:
Assay in all cases: relative viability (nuclei count vs DMSO), 5 days (fraction); higher = more cells survive
[1] = compound: CC1CC(=O)N(C2=CN=C(N=C2N1C3CCCC3)NC4=C(C=C(C=C4)C(=O)NC5CCN(CC5)C)OC)C [NPK76-II-72-1] + CC(C)C[C@H](NC(=O)[C@H](Cc1ccccc1)NC(=O)c1cnccn1)B(O)O [Bortezomib] (partner 0.002 µM)
Procedure, shortened: (§1)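 Five library-drug doses in √10 steps were combined with a fixed anchor-drug dose, or a single drug was given alone, by pin tool to lung cancer cell lines in 1536-well plates the day after seeding. Nuclei were stained and counted after 5 days. Relative viability is the nuclei count in treated wells over that in vehicle wells, taken as the median of duplicate plates.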

[2] = compound: CC1CC(=O)N(C2=CN=C(N=C2N1C3CCCC3)NC4=C(C=C(C=C4)C(=O)NC5CCN(CC5)C)OC)C [NPK76-II-72-1] + CS(=O)(=O)N1CCN(Cc2cc3nc(-c4cccc5[nH]ncc45)nc(N4CCOCC4)c3s2)CC1 [Pictilisib] (partner 1 µM)
Procedure, shortened: as §1

NPK76-II-72-1 + Olaparib = compound: CC1CC(=O)N(C2=CN=C(N=C2N1C3CCCC3)NC4=C(C=C(C=C4)C(=O)NC5CCN(CC5)C)OC)C [NPK76-II-72-1] + O=C(c1cc(Cc2n[nH]c(=O)c3ccccc23)ccc1F)N1CCN(C(=O)C2CC2)CC1 [Olaparib] (partner 8 µM)
Procedure, shortened: as §1

BI-2536 + Dasatinib = compound: CC[C@@H]1C(=O)N(C)c2cnc(Nc3ccc(C(=O)NC4CCN(C)CC4)cc3OC)nc2N1C1CCCC1 [BI-2536] + Cc1nc(Nc2ncc(C(=O)Nc3c(C)cccc3Cl)s2)cc(N2CCN(CCO)CC2)n1 [Dasatinib] (partner 0.075 µM)
Procedure, shortened: as §1

Row | Cell Line | relative viability ([1]; first compound 0.01 µM) | relative viability ([1]; first compound 0.1 µM) | relative viability ([1]; first compound 0.3162 µM) | relative viability ([1]; first compound 1 µM) | relative viability ([2]; first compound 0.01 µM) | relative viability ([2]; first compound 0.03162 µM) | relative viability ([2]; first compound 0.1 µM) | relative viability ([2]; first compound 0.3162 µM) | relative viability ([2]; first compound 1 µM) | relative viability (NPK76-II-72-1 + Olaparib; first compound 0.01 µM) | relative viability (NPK76-II-72-1 + Olaparib; first compound 0.03162 µM) | relative viability (NPK76-II-72-1 + Olaparib; first compound 0.1 µM) | relative viability (NPK76-II-72-1 + Olaparib; first compound 0.3162 µM) | relative viability (NPK76-II-72-1 + Olaparib; first compound 1 µM) | relative viability (BI-2536 + Dasatinib; first compound 0.01 µM) | relative viability (BI-2536 + Dasatinib; first compound 0.03162 µM) | relative viability (BI-2536 + Dasatinib; first compound 0.1 µM) | relative viability (BI-2536 + Dasatinib; first compound 0.3162 µM) | relative viability (BI-2536 + Dasatinib; first compound 1 µM) | relative viability ([1]; first compound 0.03162 µM)
1 | NCI-H596 | 0.838 | 0.999 | 1 | 0.966 | 0.401 | 0.338 | 0.396 | 0.368 | 0.429 | 0.771 | 0.748 | 0.68 | 0.704 | 0.67 | 0.574 | 0.673 | 0.449 | 0.25 | 0.273 | –
2 | A-427 | 0.935 | 1.06 | 0.932 | 1.02 | 0.747 | 0.796 | 0.685 | 0.632 | 0.706 | 0.644 | 0.772 | 0.74 | 0.653 | 0.869 | 0.579 | 0.752 | 0.44 | 0.12 | 0.118 | 0.977
3 | EMC-BAC-2 | 1.06 | 0.951 | 1.01 | 1.12 | 0.488 | 0.6 | 0.558 | 0.566 | 0.544 | 0.468 | 0.506 | 0.51 | 0.486 | 0.541 | 0.3 | 0.304 | 0.209 | 0.15 | 0.14 | 1.15
4 | NCI-H441 | 0.872 | 0.319 | 0.527 | 0.451 | 0.419 | 0.507 | 0.605 | 0.471 | 0.425 | 0.476 | 0.598 | 0.648 | 0.589 | 0.573 | 0.434 | 0.244 | 0.195 | 0.164 | 0.179 | 0.312
5 | LCLC-103H | 1.03 | 0.994 | 0.984 | 1.09 | 0.692 | 0.761 | 0.671 | 0.609 | 0.679 | – | 0.744 | 0.74 | 0.796 | 0.759 | 0.405 | 0.467 | 0.413 | 0.147 | 0.089 | 1.02
6 | HCC-827 | 0.975 | 1.05 | 0.956 | 1.29 | 0.954 | 1.03 | 0.98 | 0.929 | 1.08 | 0.615 | 0.649 | 0.66 | 0.608 | 0.619 | 0.293 | 0.315 | 0.334 | 0.301 | 0.177 | 1.11
7 | NCI-H1355 | 1.06 | 1.03 | 1.13 | 1.19 | 0.409 | 0.391 | 0.432 | 0.434 | 0.442 | 0.682 | 0.755 | 0.7 | 0.692 | 0.841 | 0.694 | 0.78 | 0.359 | 0.23 | 0.199 | 1.12
8 | NCI-H1734 | 0.879 | 0.969 | 0.779 | 1.13 | 0.427 | 0.478 | 0.383 | 0.411 | 0.446 | 0.582 | 0.72 | 0.745 | 0.542 | 0.667 | 0.439 | 0.462 | 0.167 | 0.145 | 0.131 | 0.96
9 | HARA | 1.08 | 1.04 | 1.12 | 1.22 | 0.371 | 0.368 | 0.46 | 0.26 | 0.377 | 0.888 | 0.756 | 0.76 | – | 0.872 | 0.265 | 0.287 | 0.328 | 0.058 | 0.0777 | 1.2
10 | HCC-15 | 0.995 | 1.05 | 1.02 | 1.02 | 0.704 | 0.778 | 0.706 | 0.748 | 0.786 | 0.679 | 0.766 | 0.639 | 0.689 | 0.741 | 0.557 | 0.417 | 0.192 | 0.112 | 0.102 | 1.11
11 | LCLC-97TM1 | 0.638 | 0.561 | 0.606 | 0.703 | – | 0.251 | 0.168 | 0.173 | 0.207 | 0.357 | 0.394 | 0.346 | 0.249 | 0.424 | 0.943 | 0.837 | 0.725 | 0.155 | 0.12 | 0.727
12 | RERF-LC-KJ | 1.11 | 1.07 | 0.916 | 1.08 | 0.491 | 0.543 | 0.546 | 0.482 | 0.492 | 0.903 | 0.914 | 0.908 | 0.901 | 0.905 | 0.746 | 0.574 | 0.234 | 0.189 | 0.217 | 1.11
13 | NCI-H1651 | 0.95 | 0.903 | 0.9 | 0.991 | 0.432 | 0.548 | 0.703 | 0.557 | 0.592 | 0.186 | 0.168 | 0.185 | 0.168 | 0.171 | 0.138 | 0.376 | 0.075 | 0.1 | 0.0509 | 0.954
14 | NCI-H2170 | – | – | – | – | 0.281 | 0.357 | 0.279 | – | 0.333 | 0.57 | 0.572 | 0.666 | 0.381 | 0.656 | 0.626 | 0.597 | 0.356 | 0.16 | 0.179 | –
15 | NCI-H2023 | 0.968 | 1.15 | 1.01 | 1.23 | 0.264 | 0.227 | 0.244 | 0.257 | 0.253 | 0.469 | 0.57 | 0.561 | 0.425 | 0.491 | 0.587 | 0.463 | 0.346 | 0.0877 | 0.0801 | 1.09
16 | LC-2-ad | 0.981 | 0.926 | 1.01 | 1.07 | 0.428 | 0.515 | 0.445 | 0.386 | 0.428 | 0.673 | 0.72 | 0.702 | 0.704 | 0.683 | 0.563 | 0.333 | 0.135 | 0.197 | 0.147 | 1.04
